# Laboratory results reported in US12544350B2, “Combinatorial antitumor treatment methods and related compositions, kits, and systems” (Klotho Therapeutics, Inc., priority 2021, dated 2026).
# Legend:
# [1] = tested on: cisplatin induced acute kidney injury (CI-AKI) in mice; test: Cisplatin-induced acute kidney injury (CI-AKI) in mice, Compound 3 (Example 11); type: in vivo, female C57BL/6J mice
# Method: The aim of the study was to investigate the efficacy of test compounds in the model of cisplatin induced acute kidney injury (CI-AKI) in mice. […] Serum analysis for urea (BUN) was performed on the 5th day and 9th days after cisplatin administration. The mean body weight loss per group was calculated every day of the study as percentage loss of initial (day 0) weight for each individual animal.
# Study design, animal selection, handling and treatment were all in accordance with the CRO's study protocols and Institutional Animal Care and Use Guidelines. Animal treatment and serum samples preparation were conducted by the Animal Laboratory personnel at the CRO. 60 female C57BL/6J mice 9-12 weeks old were randomized by body weight and divided into 2 groups, 30 animals each. Body weights ranged from 13.9 to 22.0 g with an average body weight across all groups 17.75 g (SD=1.30; CV=7.3%). Each mouse was treated with a single dose via IP route of administration with cisplatin at the dose of 11 mg/kg on the day 0 of the study. […] The mice in Group 1 remained untreated after the cisplatin injection until the terminal sacrifice.
# Cisplatin was administered without dilution as a factory-made 1 mg/ml solution for infusion at the injection volume of 11 ml/kg for the dose of 11 mg/kg. […] Only freshly prepared formulation was used for each dosing; each working formulation batch was prepared immediately prior to the administration. The working formulations were sterile filtered using 0.2 μm cellulose acetate syringe filters before injections. The dosing volume for the test compound was 5 ml/kg of body weight. The working formulations were administered as transparent clear solutions. Intraperitoneal (IP) route of administration was used in the study. Urea (BUN) was determined in the serum using a commercial kit according to the manufacturer's instructions. […] The rate of absorbance change at λ=340 nm is proportional to the urea concentration. […] Creatinine was measured using Modified Jaffe's method, without deproteinization. […]
# [2] = tested on: cisplatin-induced acute kidney injury (CI-AKI) mouse model; test: Cisplatin-induced acute kidney injury (CI-AKI) mouse model, Compound 22 (Example 9); type: in vivo, female C57BL/6J mice; settings: for gradual recovery of mean body weight, onset: cisplatin 11 mg/kg IP day 0
# Method: The aim of the study was to investigate the efficacy of test compound(s) in a (mouse) model for acute kidney injury. Specifically, the study investigated the efficacy of test compound(s) in cisplatin-induced acute kidney injury (CI-AKI) mouse model. For example, the effect of daily repeated intraperitoneal (IP) administration of Compound 22 at doses of 50 mg/kg for 7 consecutive days in four different treatment regimens on development of pathology in mice in CI-AKI model was evaluated. Serum analysis for urea (BUN) was performed on the 5th day and 12th days after cisplatin administration. The mean body weight loss per group was calculated every day of the study as percentage loss of initial (day 0) weight for each individual animal.
# Study design, animal selection, handling and treatment were all in accordance with the CRO's study protocols and Institutional Animal Care and Use Guidelines. Animal treatment and serum samples preparation were conducted by the Animal Laboratory personnel at the CRO. 100 female C57BL/6J mice 11-14 weeks old were randomized by body weight and divided into five groups, 20 animals each. Body weights ranged from 16.9 to 22.5 g with an average body weight across all groups 19.54 g (SD=1.04; CV=5.3%). Each mouse was treated with a single dose via IP route of administration with cisplatin at the dose of 11 mg/kg on the day 0 of the study. The mice in Group 2 and 4 were repeatedly treated with Compound 22 at the dose of 50 mg/kg with an interval of 24 h for seven consecutive days starting from Day 2 or Day 0 of the study, respectively. […]
# To induce acute kidney injury, cisplatin was administered without dilution as a factory-made 1 mg/ml solution for infusion at the injection volume of 11 ml/kg for the dose of 11 mg/kg. […] Urea (BUN) was determined in the serum using a commercial kit according to the manufacturer's instructions. […] The rate of absorbance change at λ=340 nm is proportional to the urea concentration. […]
# [3] = tested on: cisplatin-induced acute kidney injury (AKI) in male Sprague Dawley rats; test: Cisplatin-induced acute kidney injury (AKI) in rats, 90 minutes infusion (Example 12); type: in vivo; settings: for body weight change over baseline (BWC): day 0-6, after post-treatment period, cisplatin 5 mg/kg IP
# Method: The goal of this study was to assess the effect of compound 22 at the doses of 50 mg/kg and 25 mg/kg on the development of cisplatin-induced acute kidney injury (AKI) in male Sprague Dawley rats. Compound 22 was administrated repeatedly seven consecutive days by 90 minutes infusion into a jugular vein using automatic pumps. Treatment was initiated simultaneously with the single intraperitoneal (IP) administration of cisplatin at the dose of 5 mg/kg. The experimental animal's mortality was recorded daily. […] Serum analysis for Creatinine and Urea were performed on day −4th (blank), 1st, 3rd, 6th, 9th, and 12th (terminal) day of the study.
# Rat's jugular vein catheterization. Rat's jugular vein catheterization procedure was performed on −3rd day of the study. All experimental animals were anesthetized prior to surgical intervention by Telazol at the dose of 40 mg/kg body weight and Xylazine at the dose of 8 mg/kg body weight. The anesthetized rat was placed onto a heated surgical platform. The surgical area was shaved and gently scrubbed with a drop of iodine in 96% ethanol solution. The skin incision (2 cm) was made on the right of the midline of the neck at the level of the clavicle using a scalpel. Dissected jugular vein, separated from the salivary and lymphatic tissues, was visualized and isolated approximately 5 mm section of the vessel. The cranial end of the vessel was tied using 4-0 silk ligatures. By micro surgical scissors an incision was made to pass the catheter into the vein approximately 20 mm towards the heart. The caudal end of the jugular vein was tied to catheter's collar with silk ligatures aimed to secure the place of catheter. The free end of catheter was tunneled subcutaneously and connected to a transcutaneous button that features an external port with a cap at the nape of the animal's neck. […] To prevent dehydration after the surgery animals were injected with 2 ml physiological saline intraperitoneal. To prevent catheter occlusion and ensure its functioning flushing 0.10-0.20 ml amount of physiological saline with anticoagulant (Heparin, 500 IU/ml) was applied. First time catheter flushing was performed immediately after catheter was properly positioned in the jugular vein and fixed there. The procedure was repeated prior to infusion start. When a catheter was not in use, it was locked. The infusion was started three days after the catheter placement.
# Fluid infusion. Programmable automatic syringe pumps system allowed for a fluid infusion of delivering determined volume at the selected infusion time. After the catheter flushing animals were connected to the tether and the swivel setup permitted free movement of the animal during the infusion. The duration of infusion was 90 minutes. The volume of infusion was 10 ml/kg; infusion rate was determined automatically according to time of infusion and volume of the administrated formulation. The infusions were performed from 10 am to […] in a random order.
# Drug formulation. Route and volume of administration. Cisplatin was administered without dilution as a factory-made 1 mg/ml solution for infusion at the injection volumes of 5 ml/kg which corresponded to the doses of 5 mg/kg. IP route was used for cisplatin administration in the study. Compound 22 was formulated in sterile conditions in physiological saline at the concentrations 5 mg/ml for the dose level 50 mg/kg and 2.5 mg/ml for the dose level 25 mg/kg and was administrated as true solution. All formulations were sterilized by filtration via Minisart RC 0.2 μm sterile syringe filter. Compound 22 infusion duration was 90 minutes. The administrated volume for all group was 10 ml/kg of the body weight.
# Frequency and duration of the application. cisplatin was administered once on day 0 of the study, 30 min before first infusion. Compound 22 as well as vehicle was administrated 7 consecutive days (day 0-day 6) once per day.
# Duration of the experimental period. […]
# LLC animals = test: Cancer treatment: survival and anti-tumor efficacy in LLC animals (Example 13); type: in vivo; settings: day 15; Compound 22 (50 mg/kg), cisplatin (10 mg/kg)
# Text: Compositions, system, and/or kits of the present disclosure can be effective at treating cancer and/or tumors. For example, a treatment protocol comprising illustrative compound 22 and cisplatin, co-administered is effective as an anti-tumor treatment, in addition to compound 22 preventing/attenuating kidney damage (caused by the chemotherapeutic nephrotoxin), restoring kidney function, and/or increasing patient survival during chemotherapy. FIG. 19 illustrates the survival efficacy of Compound 22 (50 mg/kg), cisplatin (10 mg/kg), and the combination of Compound 22+cisplatin in LLC animals. The co-administration of compound 22 (an illustrative PTBA prodrug) increased the probability of survival in LLC animals at day 15 from ˜75% (cisplatin alone) to ˜95% (Compound 22+cisplatin co-administration). FIG. 20 illustrates the anti-tumor efficacy of Compound 22, cisplatin, and the combination of Compound 22+cisplatin in LLC animals. cisplatin was administered to LLC animals at day 5 and day 14 of a 21 day study. Compound 22 was co-administered (once daily) 48 hours after each dose of cisplatin, and for 6 additional, consecutive days thereafter.
# [4] = 50 mg/kg IP, 5th day after the cisplatin injection
smiles,measurement,setting,value
"CN(C)CCOC(=O)CCCSc1ccccc1 [Compound 3, 2-(dimcthylamino)ethyl 4-(phenylsulfanyl)butanoate]",mean level of creatinine in serum compared to G1,[1]; [4],significantly less
same,mean level of urea in serum compared to G1,[1]; [4],significantly less
same,"gradual recovery of mean body weight, onset","[1]; G2: 50 mg/kg IP every 24 h for seven days from Day 2, cisplatin 11 mg/kg IP day 0",beginning from the sixth day of the study
"C[N+](C)(C)CCOC(=O)CCCSc1ccccc1.Cl [Compound 22, N,N,N-trimethyl-2-{[4-(phenylsulfanyl)butanoyl]oxy}ethan-1-aminium chloride]","gradual recovery of mean body weight, onset","[2]; G2-G3: 50 mg/kg IP once or twice a day, days 2-8",beginning from the fifth day of the study
same,mean level of urea in serum compared to G1,"[2]; G2-G5, 50 mg/kg IP, 5th day after the cisplatin injection",significantly less
same,"gradual recovery of mean body weight, onset","[2]; G4-G5: 50 mg/kg IP once or twice a day, days 0-6",beginning from the seventh day of the study
same,"body weight change, comparison with the cisplatin, vehicle group",[3]; 25 mg/kg,No statistical significance
same,histopathology scores compared to Vehicle-treated animals with cisplatin injection,[3]; 25 mg/kg,no significant difference
same,body weight change over baseline (BWC),[3]; 25 mg/kg infusion once per day,−17.6%
same,kidney histopathology: cast deposition,"[3]; 25 mg/kg, H&E, terminal day",medium
same,kidney histopathology: connective tissue accumulation,"[3]; 25 mg/kg, H&E, terminal day",mild
same,kidney histopathology: glomerulonephritis,"[3]; 25 mg/kg, H&E, terminal day",mild
same,kidney histopathology: hemorrhages,"[3]; 25 mg/kg, H&E, terminal day",occasional
same,kidney histopathology: interstitial nephritis,"[3]; 25 mg/kg, H&E, terminal day",medium/severe
same,kidney histopathology: loss of brush border,"[3]; 25 mg/kg, H&E, terminal day",severe
same,kidney histopathology: loss of tubules,"[3]; 25 mg/kg, H&E, terminal day",mild
same,kidney histopathology: necrotic loci,"[3]; 25 mg/kg, H&E, terminal day",medium-frequent
same,kidney histopathology: tubular atrophy,"[3]; 25 mg/kg, H&E, terminal day",mild
same,kidney histopathology: tubular dilation,"[3]; 25 mg/kg, H&E, terminal day",medium
same,kidney histopathology: tubular epithelium flattening,"[3]; 25 mg/kg, H&E, terminal day",medium/severe
same,kidney histopathology: tubular epithelium loss,"[3]; 25 mg/kg, H&E, terminal day",medium
same,kidney histopathology: tubular hyperplasia,"[3]; 25 mg/kg, H&E, terminal day",occasional
same,"serum Creatinine values compared to the cisplatin, vehicle-treated group","[3]; 25 mg/kg, day 6",significant decrease
same,"serum Urea values compared to the cisplatin, vehicle group","[3]; 25 mg/kg, day 6",significant decrease
same,"body weight change, comparison with the cisplatin, vehicle group",[3]; 50 mg/kg,No statistical significance
same,histopathology scores compared to Vehicle-treated animals with cisplatin injection,[3]; 50 mg/kg,no significant difference
same,severity of weight loss in individual animals (frequency distribution analysis),"[3]; 50 mg/kg and 25 mg/kg, end of the study period, compared to cisplatin treatment",decreases the severity of weight loss
same,body weight change over baseline (BWC),"[3]; 50 mg/kg infusion once per day, survived animals",−3.9%
same,kidney histopathology: cast deposition,"[3]; 50 mg/kg, H&E, terminal day",mild
same,kidney histopathology: connective tissue accumulation,"[3]; 50 mg/kg, H&E, terminal day",mild
same,kidney histopathology: interstitial nephritis,"[3]; 50 mg/kg, H&E, terminal day",mild/medium
same,kidney histopathology: loss of brush border,"[3]; 50 mg/kg, H&E, terminal day",severe
same,kidney histopathology: loss of tubules,"[3]; 50 mg/kg, H&E, terminal day",occasional
same,kidney histopathology: necrotic loci,"[3]; 50 mg/kg, H&E, terminal day",occasional
same,kidney histopathology: tubular atrophy,"[3]; 50 mg/kg, H&E, terminal day",medium/mild
same,kidney histopathology: tubular basophilia,"[3]; 50 mg/kg, H&E, terminal day",occasional
same,kidney histopathology: tubular dilation,"[3]; 50 mg/kg, H&E, terminal day",medium
same,kidney histopathology: tubular epithelium flattening,"[3]; 50 mg/kg, H&E, terminal day",medium
same,kidney histopathology: tubular epithelium loss,"[3]; 50 mg/kg, H&E, terminal day",medium
same,kidney histopathology: tubular epithelium vacuolation,"[3]; 50 mg/kg, H&E, terminal day",occasional
same,kidney histopathology: tubular hyperplasia,"[3]; 50 mg/kg, H&E, terminal day",occasional
same,"serum Creatinine values compared to the cisplatin, vehicle-treated group","[3]; 50 mg/kg, day 6",significant decrease
same,"serum Creatinine values compared to the cisplatin, vehicle-treated group","[3]; 50 mg/kg, day 9",significant decrease
same,"serum Urea values compared to the cisplatin, vehicle group","[3]; 50 mg/kg, day 9",significant decrease
same,cisplatin-induced AKI development (serum Creatinine and Urea levels during infusions and post-infusion period),[3]; both tested doses (50 mg/kg and 25 mg/kg),prevented cisplatin-induced AKI development
N.N.[Cl][Pt][Cl] [cisplatin],probability of survival in LLC animals,LLC animals,~75%
